Measurements: patent US5583104A, “Treatment of proliferation of bile duct epithelium” (Mayo Foundation for Medical Research and Education, priority 1993, dated 1996)

Tested on: human cholangiocarcinoma cell line SK-ChA-1
Assay: Anti-proliferative MTT assay on human cholangiocarcinoma cell line SK-ChA-1
Assay type: cell-based
Settings: for inhibiting the growth of the human cholangiocarcinoma cell line: FIGS. 1 and 2, both experiments, non-dose dependent; for Percent Protection, Day 8: first experiment (Table I); for Percent Protection Day 4: second experiment (Table II)
Description: The human cholangiocarcinoma cell line SK-ChA-1 was grown from malignant ascites of a patient with primary adenocarcinoma of the extrahepatic biliary tree. See Knuth, et al. J. of Hepatology 1:579 (1985), hereby incorporated by reference.
SK-ChA-1 cells were plated (100 μl) into 96-well culture plates (Falcon) at a density of 50,000 cells/ml in Dulbecco's modified Eagle's medium (DMEM/HAMSF12 (50:50)) with 2% fetal calf serum (FCS, Hyclone) and antibiotics (penicillin 100 IU/ml, streptomycin 100 μg/ml and amphotericin B 2.5 μg/ml). After 18 hours, the medium was replaced with fresh medium with or without the two test drugs, natural somatostatin-14 and the somatostatin agonist octreotide. The experiments were performed in triplicate. Wells without the addition of any test drug served as normal controls. All media, with the appropriate concentration of test drug, were changed every two days.
The amount of viable cells were assayed every two days using 3-(4,5-[…])-2,5-diphenyl tetrazolium (MTT) according to method published by Tada, J. Immunol. Meth. 93:157 (1986), hereby incorporated by reference. Optical density was read by a 96-well automatic microplate reader (molecular Devices) at a test wavelength of 570 nm and a reference wavelength of 630 nm. An experiment had validated the correlation of the MTT assay (r=0.975, p=0.004) with a wide range of cell concentrations (3,000 to 330,000 cells/ml) counted with the hemocytometer. Cell proliferation curves with respect to time and test drug concentration were plotted with control wells as the baseline for comparison.
Two experiments were performed using this assay. […] The second experiment was performed at concentrations of 10^-5 M to 10^-10 M (in one log increments) and assayed every two days until day 8.

[1] = drug concentration 1 × 10^-5 M, MTT viable cells vs control wells
[2] = drug concentration 1 × 10^-10 M

Row | SMILES | inhibiting the growth of the human cholangiocarcinoma cell line | Percent Protection, Day 8 [1] [%] | Percent Protection, Day 8 (drug concentration 1 × 10^-6 M) [%] | Percent Protection, Day 8 (drug concentration 1 × 10^-7 M) [%] | Percent Protection, Day 8 (drug concentration 1 × 10^-8 M) [%] | Percent Protection Day 4 (drug concentration 1 × 10^-5 M) [%] | Percent Protection Day 4 (drug concentration 1 × 10^-6 M) [%] | Percent Protection Day 4 (drug concentration 1 × 10^-7 M) [%] | Percent Protection Day 4 (drug concentration 1 × 10^-8 M) [%] | Percent Protection Day 4 (drug concentration 1 × 10^-9 M) [%] | Percent Protection Day 4 [2] [%]
1 | C[C@@H](O)[C@@H]1NC(=O)[C@H](CCCCN)NC(=O)[C@@H](Cc2c[nH]c3ccccc23)NC(=O)[C@H](Cc2ccccc2)NC(=O)[C@@H](NC(=O)[C@H](N)Cc2ccccc2)CSSC[C@@H](C(=O)N[C@H](CO)[C@@H](C)O)NC1=O [Octreotide, H-D-Phe-Cys-Phe-D-Trp-Lys-Thr-Cys-threoninol] | effective in inhibiting the growth | 79.1 | 92.2 | 78.4 | 61.0 | 62.6 | 52.9 | 44.4 | 46.8 | 61.7 | 50.4
2 | C[C@H](N)C(=O)NCC(=O)N[C@H]1CSSC[C@@H](C(=O)O)NC(=O)[C@H](CO)NC(=O)[C@H]([C@@H](C)O)NC(=O)[C@H](Cc2ccccc2)NC(=O)[C@H]([C@@H](C)O)NC(=O)[C@H](CCCCN)NC(=O)[C@H](Cc2c[nH]c3ccccc23)NC(=O)[C@H](Cc2ccccc2)NC(=O)[C@H](Cc2ccccc2)NC(=O)[C@H](CC(N)=O)NC(=O)[C@H](CCCCN)NC1=O [Somatostatin] | effective in inhibiting the growth | 94.9 | 66.8 | 89.9 | – | 54.3 | 47.5 | 42.6 | 50.2 | 50.4 | 62.3
